In ChEMBL document CHEMBL5046319, “Development of Low-Molecular-Weight Compounds Targeting the Cancer-Associated KLF5 Transcription Factor” (ACS Med Chem Lett, 2022):
Activity calls are given as the source filed them. The calls are words filed in the database; no cut-off is given here.

How the values were obtained:
SW480 [1] = experiment: Antiproliferative activity against human SW480 cells assessed as cell growth inhibition measured after 72 hrs by Cell Counting Kit-8 assay; format: functional, cell-based; conditions: SW480, 72 h
HCT-116 [2] = experiment: Antiproliferative activity against human HCT-116 cells assessed as cell growth inhibition measured after 72 hrs by Cell Counting Kit-8 assay; format: functional, cell-based; conditions: HCT-116, 72 h
CCD-841CoN [3] = experiment: Cytotoxicity against human CCD-841 cells assessed as cell growth inhibition measured after 72 hrs by Cell Counting Kit-8 assay; format: toxicity, cell-based
SW480 [4] = experiment: Inhibition of Wnt signalling in human SW480 cells assessed as reduction in survivin expression at 10 uM measured after 24 hrs by western blot analysis; format: cell-based
SW480 [5] = experiment: Inhibition of Wnt signalling in human SW480 cells assessed as reduction in TCF4 expression at 10 uM measured after 24 hrs by western blot analysis; format: cell-based
SW480 [6] = experiment: Inhibition of Wnt signalling in human SW480 cells assessed as reduction in phosphorylation of beta-catenin at ser552 residues at 10 uM measured after 24 hrs by western blot analysis; format: cell-based
SW480 [7] = experiment: Inhibition of Wnt signalling in human SW480 cells assessed as reduction in KLF5 expression at 10 uM measured after 24 hrs by western blot analysis; format: cell-based
SW480 [8] = experiment: Inhibition of Wnt signalling in human SW480 cells assessed as reduction in KLF5 mRNA expression at 10 uM measured after 24 hrs by RT-PCR analysis; format: cell-based
CCD-841CoN [9] = experiment: Inhibition of Wnt signalling in human CCD841 cells assessed as reduction in KLF5 expression at 10 uM measured after 24 hrs by western blot analysis; format: cell-based
CCD-841CoN [10] = experiment: Inhibition of Wnt signalling in human CCD841 cells assessed as reduction in survivin expression at 10 uM measured after 24 hrs by western blot analysis; format: cell-based
CCD-841CoN [11] = experiment: Inhibition of Wnt signalling in human CCD841 cells assessed as reduction in TCF4 expression at 10 uM measured after 24 hrs by western blot analysis; format: cell-based
SW480 [12] = experiment: Inhibition of Wnt2 signalling in human SW480 cells assessed as reduction in cyclin D1 expression at 10 uM measured after 24 hrs by western blot analysis; format: cell-based
HT-29 = experiment: Antitumour activity against human HT-29 cells subcutaneously transplanted in nude mouse assessed as reduction in tumor volume at 2 mg, ip administered twice per day for 8 days; format: functional, organism-based; conditions: time 8.0 day
SW480 [13] = experiment: Inhibition of Wnt signalling in human SW480 cells assessed as reduction in phosphorylation of beta-catenin at ser675 residue at 10 uM measured after 24 hrs by western blot analysis; format: cell-based
SW480 [14] = experiment: Inhibition of USP3-KLF5 protein complex formation in human SW480 cells assessed as reduction in beta-catenin expression at 10 uM measured after 24 hrs by western blot analysis; format: cell-based
CCD-841CoN [15] = experiment: Inhibition of Wnt signalling in human CCD841 cells assessed as reduction in cyclin D1 expression at 10 uM measured after 24 hrs by western blot analysis; format: cell-based
CCD-841CoN [16] = experiment: Inhibition of Wnt signalling in human CCD841 cells assessed as reduction in phosphorylation of beta-catenin at ser675 residue at 10 uM measured after 24 hrs by western blot analysis; format: cell-based
[17] = Toxicity in nude mouse transplanted subcutaneously with human HT-29 cells assessed as abnormality in epithelial cell integrity at 2 mg, ip administered twice daily for 8 days by H and E staining based assay; format: organism-based; conditions: in vivo, 192 h, time 8 day
[18] = Toxicity in nude mouse transplanted subcutaneously with human HT-29 cells assessed as abnormality in villi formation at 2 mg, ip administered twice daily for 8 days by H and E staining based assay; format: organism-based; conditions: in vivo, 192 h, time 8 day
HEK293T = experiment: Inhibition of USP3-KLF5 protein complex formation in HEK293T cells overexpressing Myc tag-USP3 and FLAG/HA-KLF5 proteins assessed as reduction in KLF5 expression at 20 uM measured after 4 hrs by western blot analysis; format: cell-based; conditions: Homo sapiens
SW480 [19] = experiment: Antiproliferative activity against human SW480 cells assessed as inhibition of cell proliferation at 100 uM incubated for 72 hrs by CCK-8 assay; format: functional, cell-based
HCT-116 [20] = experiment: Antiproliferative activity against human HCT-116 cells assessed as inhibition of cell proliferation at 100 uM incubated for 72 hrs by CCK-8 assay; format: functional, cell-based
CCD-841CoN [21] = experiment: Cytotoxicity against human CCD841 cells assessed as inhibition of cell proliferation at 100 uM incubated for 72 hrs by CCK-8 assay; format: toxicity, cell-based

SMILES: CC(C)COC(=O)N1O[C@H](C(C)C)C(=O)N2[C@@H](CC(C)C)CN(Cc3ccccc3)C[C@H]12
- IC50 (SW480 [1]): 5.1 µM
- IC50 (HCT-116 [2]): 5.1 µM
- Activity (CCD-841CoN [3]): Non-Toxic
- Activity (SW480 [4]): Active
- Activity (SW480 [5]): Active
- Activity (SW480 [6]): Active
- Activity (SW480 [7]): Active
- Activity (SW480 [8]): inactive
- Activity (CCD-841CoN [9]): inactive
- Activity (CCD-841CoN [10]): inactive
- Activity (CCD-841CoN [11]): inactive

SMILES: CCCC[C@H]1CN(Cc2ccccc2)C[C@@H]2N(C(=O)OCC(C)C)O[C@H](C(C)C)C(=O)N12
- IC50 (SW480 [1]): 5.1 µM
- IC50 (HCT-116 [2]): 5.1 µM
- Activity (CCD-841CoN [3]): Non-Toxic
- Activity (SW480 [4]): Active
- Activity (SW480 [5]): Active
- Activity (SW480 [6]): Active
- Activity (SW480 [7]): Active
- Activity (SW480 [8]): inactive
- Activity (CCD-841CoN [9]): inactive
- Activity (CCD-841CoN [10]): inactive
- Activity (CCD-841CoN [11]): inactive

SMILES: CC[C@H](C)[C@H]1CN(Cc2ccccc2)C[C@@H]2N(C(=O)OCC(C)C)O[C@H](C(C)C)C(=O)N12
- IC50 (SW480 [1]): 2.5 µM
- IC50 (HCT-116 [2]): 2.5 µM
- Activity (CCD-841CoN [3]): Non-Toxic
- Activity (SW480 [4]): Active
- Activity (SW480 [5]): Active
- Activity (SW480 [6]): Active
- Activity (SW480 [12]): Active
- Activity (HT-29): Active
- Activity (SW480 [7]): Active
- Activity (SW480 [13]): Active
- Activity (SW480 [14]): Active
- Activity (CCD-841CoN [15]): inactive
- Activity (CCD-841CoN [16]): inactive
- Activity [17]: Non-Toxic
- Activity [18]: Non-Toxic
- Activity (HEK293T): Active

SMILES: O=C1c2ccccc2C(=O)N1O
- Activity (SW480 [19]): Active
- Activity (HCT-116 [20]): Active
- Activity (CCD-841CoN [21]): Toxic

SMILES: CC(C)[C@@H](ON)C(=O)OCc1ccccc1
- Activity (SW480 [19]): Active
- Activity (HCT-116 [20]): Active
- Activity (CCD-841CoN [21]): Toxic

SMILES: CC(C)[C@H](O)C(=O)OCc1ccccc1
- Activity (SW480 [19]): Active
- Activity (HCT-116 [20]): Active
- Activity (CCD-841CoN [21]): Toxic

SMILES: CCOC(CN)OCC
- Activity (SW480 [19]): Active
- Activity (HCT-116 [20]): Active
- Activity (CCD-841CoN [21]): Toxic

SMILES: CC(C)[C@@H](ON1C(=O)c2ccccc2C1=O)C(=O)OCc1ccccc1
- Activity (SW480 [19]): Active
- Activity (HCT-116 [20]): Active
- Activity (CCD-841CoN [21]): Toxic

SMILES: CCOC(CN(Cc1ccccc1)C(=O)[C@@H](NC(=O)OCC1c2ccccc2-c2ccccc21)[C@@H](C)CC)OCC
- Activity (SW480 [19]): Active
- Activity (HCT-116 [20]): Active
- Activity (CCD-841CoN [21]): Toxic

SMILES: CC(C)[C@H](O)C(=O)O
- Activity (SW480 [19]): Active
- Activity (HCT-116 [20]): Active
- Activity (CCD-841CoN [21]): Toxic

SMILES: CCOC(CNCc1ccccc1)OCC
- Activity (SW480 [19]): Active
- Activity (HCT-116 [20]): Active
- Activity (CCD-841CoN [21]): Toxic

SMILES: CC[C@H](C)[C@H](NC(=O)OCC1c2ccccc2-c2ccccc21)C(=O)O
- Activity (SW480 [19]): Active
- Activity (HCT-116 [20]): Active
- Activity (CCD-841CoN [21]): Toxic

SMILES: O=C1[C@H](Cc2ccc(O)cc2)N2C(=O)CCN(C(=O)NCc3ccccc3)[C@H]2CN1Cc1cccc2ccccc12
- Activity (SW480 [19]): Active
- Activity (HCT-116 [20]): Active
- Activity (CCD-841CoN [21]): Toxic

SMILES: O=Cc1ccccc1 [BENZALDEHYDE]
- Activity (SW480 [19]): Active
- Activity (HCT-116 [20]): Active
- Activity (CCD-841CoN [21]): Toxic

SMILES: CCOC(CN(Cc1ccccc1)C(=O)[C@@H](N)[C@@H](C)CC)OCC
- Activity (SW480 [19]): Active
- Activity (HCT-116 [20]): Active
- Activity (CCD-841CoN [21]): Toxic
